Results taken from patent US20110009267A1, “Process for Improving Seedling Growth and/or Early Emergence of Crops” (Bayer CropScience AG, priority 2009, published 2011).

How the values were obtained:
Format in all cases: in vivo
[1] = test system: Soybean variety "Isidor"; assay: Plant growth test, greenhouse, seed treatment, soybean variety Isidor; conditions: for Green surface, % of untreated: 15 days; for Green surface: 15 days at 20° C., 80% relative humidity
Description: (§1) The test is performed in the greenhouse. 7 soybean seeds per treatment of 2 varieties (Cordoba and Isidor) were sown in 5 liter pots containing 13 cm of a mix of steamed field soil and sand (1:1), 2 replicates were made. The tested compound as well as the reference active ingredient were both solved in a standard solvent used for soybean seed application and known to be safe. Seed treatment was performed with the aid of laboratory equipment. For untreated, 4 replicates were made and seeds were treated with the pure solvent. 2 fungicide concentrations were tested: 5 g a.i./100 kg and 10 g a.i./100 kg. Seeds were then covered by 5 cm of the same mix of steamed field soil and sand (1:1). Pots were incubated in the greenhouse 15 days at 20° C. and 80% relative humidity. Assessment consisted of calculation of green surface of soybean (pixel) using a digital imaging software to manage data analysis.

[2] = test system: soybean seeds; assay: Emergence of soybean plants after seed treatment; conditions: soybean seeds treated
[3] = test system: Soybean variety "Cordoba"; assay: Plant growth test, greenhouse, seed treatment, soybean variety Cordoba; conditions: for Green surface, % of untreated: 15 days; for Green surface: 15 days at 20° C., 80% relative humidity
Description: as §1

SMILES | Green surface, % of untreated ([1]; seed treatment 5 g a.i./100kg) | Green surface ([1]; seed treatment 5 g a.i./100kg) [pixel] | Green surface, % of untreated ([1]; seed treatment 10 g a.i./100kg) | Green surface ([1]; seed treatment 10 g a.i./100kg) [pixel] | Emergence of the soybean plants in comparison to untreated plants [2] | Green surface, % of untreated ([3]; seed treatment 5 g a.i./100kg) | Green surface ([3]; seed treatment 5 g a.i./100kg) [pixel] | Green surface, % of untreated ([3]; seed treatment 10 g a.i./100kg) | Green surface ([3]; seed treatment 10 g a.i./100kg) [pixel]
Cc1nn(C)c(F)c1C(=O)Nc1ccccc1C(C)CC(C)C (centres unmarked) [Penflufen, N-{2-(1,3-dimethylbutyl)anilino}-1,3-dimethyl-5-fluor-4-pyrazol] | 125 % of untreated | 105395 | 133 % of untreated | 111543 | earlier emergence | 160 % of untreated | 109373 | 158 % of untreated | 108284
O=C(Nc1ccccc1-c1ccc(Cl)cc1)c1cccnc1Cl [Boscalid, reference compound] | 86 % of untreated | 71972 | 86 % of untreated | 72634 |  | 109 % of untreated | 74661 | 113 % of untreated | 77243
